How the values were obtained:
[1] = target: T1, Cannabinoid receptor 1 (Rattus norvegicus, UniProt P20272); assay: Displacement of [3H]CP-55,940 from rat brain Cb1 receptor
[2] = target: T2, Cannabinoid receptor 2 (Homo sapiens, UniProt P34972); assay: Agonist activity at recombinant human Cb2 receptor expressed in HEK293 cells assessed as inhibition of forskolin-stimulated cAMP levels; format: functional, cell-based
[3] = target: T2, Cannabinoid receptor 2; assay: Displacement of [3H]CP-55,940 from recombinant human Cb2 receptor expressed in HEK293 cells; format: cell-based
[4] = target: T1, Cannabinoid receptor 1; assay: Agonist activity at recombinant rat Cb1 receptor expressed in HEK293 cells assessed as inhibition of forskolin-stimulated cAMP levels; format: functional, cell-based
[5] = target: T2, Cannabinoid receptor 2; assay: Agonist activity at recombinant human Cb2 receptor expressed in HEK293 cells assessed as inhibition of forskolin-stimulated cAMP levels relative to CP-55940; format: functional, cell-based
[6] = target: Cannabinoid receptor 2 (Mus musculus, UniProt P47936); assay: Displacement of [3H]CP-55,940 from recombinant mouse Cb2 receptor expressed in HEK293 cells; format: cell-based
Sequence of Cannabinoid receptor 2 (Mus musculus, UniProt P47936) (P47936 whole entry): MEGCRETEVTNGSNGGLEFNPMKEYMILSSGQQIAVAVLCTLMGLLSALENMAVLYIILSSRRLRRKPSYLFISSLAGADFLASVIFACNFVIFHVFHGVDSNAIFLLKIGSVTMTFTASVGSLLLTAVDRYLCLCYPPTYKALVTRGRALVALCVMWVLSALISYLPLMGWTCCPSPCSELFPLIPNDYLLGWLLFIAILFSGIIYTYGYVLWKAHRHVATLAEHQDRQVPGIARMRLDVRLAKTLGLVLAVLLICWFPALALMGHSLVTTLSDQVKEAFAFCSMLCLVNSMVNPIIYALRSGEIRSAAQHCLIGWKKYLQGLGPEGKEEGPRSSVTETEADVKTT

[7] = target: Cannabinoid receptor 1 (Rattus norvegicus) (UniProt P20272); assay: Agonist activity at recombinant rat Cb1 receptor expressed in HEK293 cells assessed as inhibition of forskolin-stimulated cAMP levels relative to control; format: functional, cell-based
Sequence of Cannabinoid receptor 1 (Rattus norvegicus) (P20272 whole entry): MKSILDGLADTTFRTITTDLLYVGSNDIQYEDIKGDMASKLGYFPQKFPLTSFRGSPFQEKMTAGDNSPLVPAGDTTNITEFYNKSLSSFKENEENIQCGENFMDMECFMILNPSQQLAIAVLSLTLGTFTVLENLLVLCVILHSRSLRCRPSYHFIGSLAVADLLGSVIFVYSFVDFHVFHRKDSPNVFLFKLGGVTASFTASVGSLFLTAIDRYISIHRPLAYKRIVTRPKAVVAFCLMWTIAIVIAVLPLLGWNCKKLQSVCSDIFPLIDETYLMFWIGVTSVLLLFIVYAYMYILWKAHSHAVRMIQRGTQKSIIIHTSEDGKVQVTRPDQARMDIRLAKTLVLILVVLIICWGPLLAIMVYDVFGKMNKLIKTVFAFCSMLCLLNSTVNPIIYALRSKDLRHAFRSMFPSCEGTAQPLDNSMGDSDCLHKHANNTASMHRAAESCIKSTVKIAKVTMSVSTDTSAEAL

T1 sequence (P20272 whole entry): as above
T2 sequence (P34972 whole entry): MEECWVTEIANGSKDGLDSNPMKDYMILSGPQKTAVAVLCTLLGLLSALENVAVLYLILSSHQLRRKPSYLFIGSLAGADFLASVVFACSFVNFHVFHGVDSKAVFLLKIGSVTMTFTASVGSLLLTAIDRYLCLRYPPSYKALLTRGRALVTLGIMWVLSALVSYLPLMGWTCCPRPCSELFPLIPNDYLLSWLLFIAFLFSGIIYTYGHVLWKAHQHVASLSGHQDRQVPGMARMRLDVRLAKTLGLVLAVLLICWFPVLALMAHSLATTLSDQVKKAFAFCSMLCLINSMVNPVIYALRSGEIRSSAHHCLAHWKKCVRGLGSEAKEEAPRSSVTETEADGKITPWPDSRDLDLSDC

Structure (SMILES) | Ki [1] [nM] | EC50 ([2]; read-out: EC50) [nM] | Ki [3] [nM] | EC50 ([4]; hek293) | Emax [5] [%] | Ki [6] [nM] | Emax [7] [%] | EC50 ([4]; read-out: EC50) [nM] | EC50 ([2]; hek293)
CC1=CC[C@H]2[C@H](C1)c1c(O)cc(/C(C)=N\OCCCC#N)cc1OC2(C)C | 0.3 | 2 | 0.4 | Not Active | 35 | 0.1 |  |  | 
CC1=CC[C@H]2[C@H](C1)c1c(O)cc(/C(C)=N/OCCN3CCCCC3)cc1OC2(C)C | 5.6 | 65.7 | 2.5 |  | 147 | 4.1 | 31 | 12.7 | 
CCO/N=C(\C)c1cc(O)c2c(c1)OC(C)(C)[C@H]1CC=C(C)C[C@H]21 | 66.1 |  |  |  |  | 74.8 |  |  | 
CC1=CC[C@H]2[C@H](C1)c1c(O)cc(/C(C)=N/OCCOc3ccccc3)cc1OC2(C)C | 11.4 | 49.6 | 6.2 |  | 99 | 3.7 | 56 | 0.9 | 
CC1=CC[C@H]2[C@H](C1)c1c(O)cc(/C(C)=N/OCCN3CCCC3)cc1OC2(C)C | 6.6 |  | 8.4 |  |  | 6.7 |  |  | 
CCCCO/N=C(\C)c1cc(O)c2c(c1)OC(C)(C)[C@H]1CC=C(C)C[C@H]21 | 3.4 | 9.14 | 16.9 |  | 116 | 1.6 | 51 | 0.58 | 
CC1=CC[C@H]2[C@H](C1)c1c(O)cc(/C(C)=N/OCCCn3ccnc3)cc1OC2(C)C | 1.2 |  | 3.7 |  |  | 1.5 |  |  | 
CC1=CC[C@H]2[C@H](C1)c1c(O)cc(/C(C)=N/OCCCCF)cc1OC2(C)C | 4.1 |  | 9.7 |  |  | 2.5 | 39 | 0.7 | Not Active
CCCC(C)O/N=C(\C)c1cc(O)c2c(c1)OC(C)(C)[C@H]1CC=C(C)C[C@H]21 (mixture of isomers) | 2 | 41.3 | 24 |  | 411 | 43.6 | 48 | 22.4 | 
